Data reported in patent US9114171B2, “Racecadotril liquid compositions” (McNeil-PPC, Inc., priority 2012, dated 2015).

Experiment: Stability of Racecadotril in Buffer
Format: physicochemical
Procedure: For comparative purposes, the stability of racecadotril was analyzed when solubilized in pH 4.5 Acetate buffer and pH 4.5 Citrate buffer (Table 4). Test Methods Sample Preparation: • 1. Pipet 1 mL of Racecadotril solution into a 100 mL volumetric flask (V.F.) • 2. Dilute to volume with the same buffer used in the solution preparation. • 3. Further dilute the sample solution to about 0.1 mg/mL if necessary. […] Parameters may be modified to optimize chromatography. • The assay of Racecadotril is determined by using the external standard injected. The degradation products levels are determined by % peak area relative to the Racecadotril peak. Chromatographic Conditions (European Pharmacopoeia Racecadotril Method): […]

solubility in buffer versus water: more soluble in buffer than in water
stability in buffer versus water (40° C. and 4 weeks): more stable in a buffer than in water
Structure (SMILES): CC(=O)SCC(Cc1ccccc1)C(=O)NCC(=O)OCc1ccccc1 (racemic) [Racecadotril]
